US7713943B2, “Further use of protein kinase N beta” (Silence Therapeutics Aktiengesellschaft (AG), priority 2002, dated 2010)
Entries after “also recorded” stand apart in the source; their conditions may differ. Marks after values point to notes of the source that are not given here. Values belong to the compound of their own block, whether it stands above or below them.

Tests used:
[1] = test system: PKNbeta; assay: Kinase activity and phosphorylation of recombinant PKN-beta from LY294002-treated HeLa cells; type: cell-based
From the text: Recombinant wildtype PKN-beta or derivatives of PKN-beta (as described in FIGS. 10-11) were transiently expressed in HeLa cells. Said derivatives were PKN-beta derivative TA and derivative KE as described in example 10 herein. The PKN-beta was modified in each case by a myc-tag as described above which allowed the precipitation of PKN-beta and its derivatives using an anti-Myc antibody.
For the assessment of the activity of PKN-beta an in vitro kinase activity using the immune precipitates was carried out as described above. Half of the precipitates were subjected to the in vitro kinase reaction, the second half was analyzed by Western-blotting using anti-phospho-PRK antibodies. The filter was stripped and reprobed using the anti-PKN-beta antiserum. Phospho-p70 S6 Kinase levels were analyzed from aliquots of cell lysates, that were withdrawn earlier, to confirm the efficacy of the LY294002 treatment even after only 3 h treatment. The anti-phospho p70 antibody was obtained from Cell signaling.

[2] = test system: endogenous PKN-beta; assay: Expression of endogenous PKN-beta after LY294002, Western blot, HeLa cells; type: cell-based; conditions: 10 μM LY294002, 48 h
Protocol: (§1) PC-3 cells were cultivated as described in example 1 herein. Said PC-3 cells are PTEN −/−. HeLa cells were obtained from the American Type Culture Collection (ATCC) and grown as described in Sternberger et al. (2002). Transfections were carried out in 10-cm plates (at 30% to 50% confluency) using Fugene 6 (Roche, Nutley, N.J.) according to the manufacturer's instructions. Cultivated cells were trypsinated and harvested following stopping the trypsin effect by medium. Both cell types, i.e. PC-3 cells and HeLa cells were treated for the indicated times with 10 μM LY294002 or DMSO, whereby DMSO was used as the solvent for LY294002 and, because of this, as negative control. The resulting extracts were fractionated by SDS-PAGE and subsequently analysed by Western-blotting. The levels of the indicated proteins such as p110, which served as a loading control, endogenous PKN-beta and phosphorylated Akt were detected using the respective antibodies. Phosphorylated Akt (P*-Akt) serves as a control for the efficacy of the LY294002-mediated treatment.

[3] = test system: endogenous PKN-beta; assay: Expression of endogenous PKN-beta after LY294002, Western blot, PC-3 cells; type: cell-based, human
Protocol: as §1

[4] = test system: MPB (myelin basic protein); assay: In vitro kinase activity of protein kinase N beta derivatives, MPB/MBP phosphorylation; type: biochemical; design: key to Activity: +: active; −: inactive; !: no “hyper activation” was observed as one might have expected from comparable mutations in other kinases (Morgan and Debond, 1994); conditions: for Activity: MPB substrate, FIG. 9
Protocol: The respective fragments were transiently epressed in HeLa cells. Their relative expression was determined by Western-blot analysis of Hela cell extracts using an anti-PKNbeta antibody.
MPB is myelin basic protein which is a standard in vitro phosphorylation substrate.
As may be taken from FIG. 9A apart from the full-length protein kinase N beta only the kinase domain in its otherwise wildtype form is active in phosphorylating MPB.
The PKNbeta-derived molecules were immune-precipitated from the cell extracts shown in FIG. 10 by using anti-tag antibodies. The immune precipitates were washed as described (Klippel et al., 1996) and divided in two halfs. One half was incubated with 5 μg MBP (UBI) as a phosphorylation substrate, 4 mM MgCl2 and gamma ^32P-ATP in a buffered solution for 10 min at room temperature. In addition, phosphatase inhibitors and inhibitors against unspecifically acting kinases were added as in Klippel et al., 1998. Incorporation of radioactive phosphate was detected by autoradiography after separating the reaction products by 16% SDS-PAGE (FIG. 11B).

[5] = test system: GST-GSK3 fusion protein; assay: Non-radioactive in vitro kinase assay, anti-phospho GSK3alpha Western blot; type: biochemical; conditions: immune precipitates, 200 μM rATP, FIG. 11A
Protocol: The second half of the immune precipitates was incubated with 1 μg GST-GSK3 fusion protein (Cell Signaling Technology) as a phosphorylation substrate in the presence of 200 μM rATP. The reaction mixture was subsequently analyzed by 8-16% gradient SDS-PAGE and Western blotting using the anti-phospho GSK3alpha antibody (Cell Signaling Technology) (FIG. 11A).
The specificity of the in vitro phosphorylation reactions was controlled by analyzing kinase defective variants (e.g. containing mutations in the ATP binding site, see above) in parallel to active protein.
In a first step, the suitability of a non-radioactive screening formate was determined, whereby the various protein kinase N beta derivatives as already discussed in connection with example 10, were used for phosphorylating a suitable substrate. Such substrate may, for example, be MBP or a GSK3 peptide which is typically immobilised on a suitable carrier such as agarose- or sepharose beads or on plastic surfaces. In the present case and as depicted in FIG. 11A, the substrate is a GSK3-derived peptide fused to paramyosin. […] The phosphorylated substrate in the present case was detected by anti-phospho GSK3 alpha antibody (mentioned above).

[6] = LY294002 treatment, anti-phospho-PRK antibody
[7] = transient overexpression in HeLa cells

Activity [4, 7]: −*!
Compound: TD718: kinase domain derivative, threonine at position 718 changed to aspartic acid

Activity [4, 7]: −*!
Compound: TE718: kinase domain derivative, threonine at position 718 changed to glutamic acid

Second part, the compound before the results:

Compound: O=c1cc(N2CCOCC2)oc2c(-c3ccccc3)cccc12 [LY294002, 2-(4-morpholinyl)8-phenylchromone]
kinase activity of PKNbeta, phosphorylation of MBP ([1]; 3 h of LY294002 treatment): visible
kinase activity of PKNbeta, phosphorylation of MBP ([1]; 24 h of LY294002 treatment): almost completely inhibited
kinase activity of PKNbeta, phosphorylation of MBP ([1]; LY294002 treatment of HeLa cells prior to lysis, FIG. 13): strong inhibition
phosphorylation of PKNbeta at position 718 [1, 6]: compromised
phosphorylation status of PKN-beta derivative KE [1, 6]: to some extent affected
endogenous PKNbeta expression (protein level) [2]: reduced amounts can be detected
endogenous PKNbeta expression (protein level) ([3]; 10 μM LY294002, 24 h): visible reduction
endogenous PKNbeta expression (protein level) ([3]; 10 μM LY294002, 48 h): further reduced

Compound: Kinase domain comprising amino acids 535-889: protein kinase N beta derivative, kinase domain comprising amino acids 535-889
phosphorylation of MBP, 32P incorporation ([4]; immune precipitates, gamma 32P-ATP, autoradiography, FIG. 11B): show activity
phosphorylating MPB (FIG. 9A) [4, 7]: active
Activity [4, 7]: +*
phosphorylation of GSK3-derived substrate [5]: suitable to phosphorylate the substrate; also recorded: show activity

Compound: TA718: kinase domain derivative, threonine at position 718 changed to alanine
Activity [4, 7]: −*
